What was measured:
eggs [1] = test: Stress-induced egg fragmentation (hot plate culturing); assay type: cell-based, mouse; details: hot plate 37° C.; for egg fragmentation: after 21 and 24 hours of culturing
Experimental: (§1) Mouse cumulus cells-egg masses harvested by the method of Example 3 were stored in TYH medium and the cumulus cells were removed by 300 μg/mL hyaluronidase treatment to recover the eggs alone. TYH medium was prepared with selenoneine at 10 nM, 100 nM, 1 μM, 10 μM and 100 μM, and incubated on a hot plate set to 37° C. Selenoneine-free THY medium was used as the control. The collected eggs were transferred to the incubated selenoneine-containing TYH medium and cultured under shielding for 12 hours, 15 hours, 18 hours, 21 hours and 24 hours, after which they were observed under a stereomicroscope and the proportion of fragmented eggs was examined (FIG. 6). The numbers of cultured eggs in each selenoneine-containing medium were 10 nM: 107, 100 nM: 161, 1 μM: 155, 10 μM: 118, 100 μM: 85 and control: 83.
Culturing by incubation on a hot plate instead of a CO2 incubator produced stress in the eggs. […] The numbers of cultured eggs in each medium were 10 nM: 63, 100 nM: 66, 1 μM: 63, 10 μM: 71, 100 μM: 54 and control: 83.
as §1, with “with ergothioneine” for “with selenoneine”, “C. Ergothioneine-free” for “C. Selenoneine-free”, “(FIG. 7).” for “(FIG. 6). The numbers of cultured eggs in each selenoneine-containing medium were 10 nM: 107, 100 nM: 161, 1 μM: 155, 10 μM: 118, 100 μM: 85 and control: 83.”
Culturing by incubation on a hot plate instead of a CO2 incubator produced stress in the eggs.

mouse sperm [2] = test: Sperm membrane protection (propidium iodide / Hoechst 33342 staining); assay type: cell-based, mouse (C57BL/6 J line)
Experimental: (§2) A sperm mass harvested from the epididymis of an 8- to 12-week-old sexually matured male mouse (C57BL/6 J line) was transferred to a drop prepared in the TYH medium. It was then returned to the plastic dish in the incubator and allowed to stand for 1 hour. After standing for 1 hour, the selenoneine prepared in Example 1 was added to a drop of sperm-containing fertilization medium to final concentrations of 10 nM, 1 μM and 100 μM (or was not added for the control), and the mixture was cultured in an incubator for 3 hours, 6 hours and 9 hours, after which the sperm were obtained. The sperm were also obtained before culturing (0 h). The nuclei of obtained sperm were stained with 2 μg/mL of propidium iodide (PI: Sigma-Aldrich Japan, KK.) and 16.2 μM of Hoechst AG 33342 (Hoechst3342: Invitrogen Corp.), and observed under a fluorescent microscope (FIG. 9A). The number of sperm whose nuclei were unstained with propidium iodide was divided by the number of sperm whose nuclei were stained with Hoechst AG, to calculate the proportion of sperm which retained membranes (FIG. 9B).
Hoechst AG is cell membrane-permeable and can stain all sperm nuclei, whereas propidium iodide is membrane-impermeable and can only stain the nuclei of dead sperm or sperm that have damaged membranes. Therefore, the number of sperm whose nuclei were not stained with propidium iodide but were stained only by Hoechst AG represents the number of normal sperm which retained their membranes.
as §2, with “(Hoechst3342: distributed by” for “(Hoechst3342:”, “microscope.” for “microscope (FIG. 9A).”, “9C).” for “9B).”

mouse sperm [3] = test: Sperm motility test (CASA); assay type: cell-based, mouse (C57BL/6 J line); details: 1 μL of 10 μM added to 100 μL TYH drop; 3 h and 6 h incubation; vs control
Experimental: A 100 μL drop of TYH medium was prepared in a plastic dish, and liquid paraffin was laid over it until the drop was completely covered. The plastic dish was then allowed to stand for 16 hours in an incubator set to 5% CO2, 37° C. The TYH medium drop on the plastic dish was used for a sperm motility test and fertilization test. A sperm mass harvested from the epididymis of a 8- to 12-week-old sexually matured male mouse (C57BL/6 J line) was transferred to a drop prepared in the TYH medium. It was then returned to the plastic dish in the incubator and allowed to stand for 1 hour. After standing for 1 hour, 1 μL of selenoneine (10 μM) prepared in Example 1 was added to a drop of sperm-containing fertilization medium (or not added for the control), and the mixture was allowed to stand in an incubator. After incubation for 3 hours, the sperm motility was measured using CASA, and the proportion of sperm was measured, dividing it into motile sperm and progressive sperm (FIGS. 2A and B). After incubation for 6 hours, the proportion of sperm was then measured with similar division based on sperm motility (VCL) (FIGS. 2C and D).

fertilized eggs [4] = test: Fertilized egg fragmentation after treatment of sperm, in vitro fertilization; assay type: cell-based, mouse (C57BL/6 J line); details: sperm incubated 6 h with 100 nM, 24 h after fertilization; for fragmented embryos: vs untreated control
Experimental: In the same manner as Example 2, sperm incubated for 6 hours in selenoneine-containing TYH medium (final concentration: 100 nM) were separated off with the medium and washed with TYH medium that had been previously incubated at 37° C. in a 5% CO2 atmosphere, after which the washed sperm were separated off and added to TYH medium containing cumulus cells-egg masses. After 24 hours had passed, the fertilization rate was measured and the numbers of normal 2-cell stage embryos and fragmented embryos were counted. For measurement of the fertilization rate, second polar body release and the presence or absence of cell nuclei in the split bodies of each of the 2-cell stage embryos were visually observed in the bright field of a stereomicroscope, and normal 2-cell stage embryos and fragmented embryos were likewise observed in the bright field of a stereomicroscope.
The inhibiting effect of ergothioneine treatment on fragmentation of fertilized eggs was examined in the same manner as the selenoneine treatment of sperm in Example 3, but using commercially available ergothioneine (final concentration: 100 nM) instead of selenoneine (FIG. 5). No difference in the proportion of 2-cell stage embryos was found between the ergothioneine treatment and selenoneine treatment (FIG. 5A).

fertilized eggs [5] = test: Fertilized egg fragmentation after treatment of eggs, in vitro fertilization; assay type: cell-based, mouse (C57BL/6 J line); details: eggs cultured with 100 nM; 24 h after sperm addition; vs control
Experimental: Female mice (C57BL/6 J line: 8- to 12-week-old) were treated for superovulation by the following procedure, and the eggs were harvested.
1. Animal serotropin (PMSG, ASKA Pharmaceutical Co., Ltd.) and animal gonadotropin (hCG, ASKA Pharmaceutical Co., Ltd.) were dissolved in physiological saline to […]. 2. The mice were intraperitoneally administered PMSG at 0.1 mL(5 units)/mouse, and after 48 hours they were intraperitoneally administered hCG at 0.1 mL (5 units)/mouse. 3. After hCG administration, the cumulus cells and egg masses were taken through the fallopian tubes of the mice at 14 to 16 hours.
The cumulus cells and egg masses harvested from the fallopian tubes of the superovulated mice were transferred to a drop of 100 μL TYH medium that had been previously incubated in 5% CO2 at 37° C., and allowed to stand in the incubator.
The harvested eggs were cultured for 2 hours in TYH medium, and then the 1 μL selenoneine (10 μM) solution prepared in Example 1 was added to the TYH medium drop (or not added for the control), and further culturing was carried out for 2 hours with a final concentration of 100 nM selenoneine in the medium. […] After 24 hours had passed in the presence of selenoneine, the fertilization rate was measured and the numbers of normal 2-cell stage embryos and fragmented embryos were counted. […]

eggs [6] = test: Oxidative stress test (ROS/RNS Detection Kit) in eggs; assay type: cell-based, mouse; details: 1 μM each; 15 hours on hot plate; vs vehicle (0.1% DMSO)
Experimental: Mouse cumulus cells-egg masses harvested by the method of Example 3 were stored in TYH medium and the cumulus cells were removed by 300 μg/mL hyaluronidase treatment to recover the eggs alone. TYH medium containing 1 μM selenoneine (SeN), TYH medium containing 1 μM ergothioneine (Erg) and TYH medium containing 1 μM ergothioneine and 1 μM ebselen (Tokyo Kasei Kogyo Co., Ltd.) (Erg+Eb) were prepared and incubated on a hot plate set to 37° C. As a control, a TYH medium (vehicle) containing the DMSO (0.1%) used to dissolve the ebselen was used. The collected eggs were transferred to incubated selenoneine-containing TYH medium and cultured under shielding for 15 hours. The reagent of a ReOIS-ID ROS/RNS Detection Kit (product of Enzo Co.) was added to the medium containing the cultured eggs, according to the manufacturer's protocol. DAPI (Wako Pure Chemical Industries, Ltd.) had already been separately added to stain the nuclei. The nuclei (DAPI) and the reactive oxygen species (ROS), reactive nitrogen species (RNS) and superoxides in the eggs were observed under a fluorescent microscope (FIG. 8A). The fluorescence intensity was calculated and graphed (FIGS. 8B to D).

[7] = 10 nM to 100 μM, culturing 3, 6 and 9 hours
[8] = 100 μM, after culturing for 9 hours, p<0.05

Row | SMILES | degree of egg fragmentation (eggs [1]; 100 nM, 1 μM and 10 μM in TYH medium, p<0.05) | proportion of sperm which retained membranes (mouse sperm [2]; [7]) | proportion of sperm which retained membranes (mouse sperm [2]; [8]) | sperm motility (proportion of motile sperm and progressive sperm) (mouse sperm [3]) | proportion of 2-cell stage embryos (fertilized eggs [4]; washed, vs control) | fragmented embryos (fertilized eggs [4]; washed) | fragmented embryos (fertilized eggs [5]) | proportion of 2-cell stage embryos (fertilized eggs [5]) | reactive nitrogen species (RNS) in eggs (eggs [6]) | reactive oxygen species (ROS) in eggs (eggs [6]) | superoxides in eggs (eggs [6]) | egg fragmentation (eggs [1]; 10 nM to 10 μM in TYH medium) | egg fragmentation (eggs [1]; 1 μM in TYH medium, p<0.05) | proportion of 2-cell stage embryos, ergothioneine treatment versus selenoneine treatment (fertilized eggs [4])
1 | C[N+](C)(C)[C@@H](Cc1cnc([Se-])[nH]1)C(=O)O [selenoneine] | significantly inhibited | membrane-protecting effect | significantly protected | No effect on sperm motility | no difference | No fragmented embryos | no fragmented embryos | no difference | significant reduction | increased significantly | No change | – | – | –
2 | C[N+](C)(C)[C@@H](Cc1c[nH]c(=S)[nH]1)C(=O)[O-] [ergothioneine] | – | membrane-protecting effect | significantly protected | – | – | reduced compared to the untreated control | – | – | no variation | increased significantly | No change | inhibition seen | significantly inhibited | No difference

Reference: US20230091310A1, “Inhibitor of Fertilized Egg Fragmentation” (priority 2019, published 2023)
